Assays:
Assay type in all cases: cell-based
[1] = tested on: Erysipelothrix rhusiopathiae; test: Bactericide test, Erysipelothrix rhusiopathiae (agar streak plate)
Method in brief: (§1)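 Compounds were formulated with Triton X-155/acetone emulsifier (basic formulation 320 ppm, serially diluted) and mixed 2:8 into molten nutrient-tryptic soy agar. Organisms were streaked onto the plates and incubated 48 hr at 28°C. Growth inhibition was scored visually against untreated agar as 0, 50 or 100% control.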

Vibrio coli = test: Bactericide test, Vibrio coli (agar streak plate)
Method in brief: as §1

Salmonella cholerasuis = test: Bactericide test, Salmonella cholerasuis (agar streak plate); details: Salmonella
Method in brief: (§2)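 Compounds in Triton X-155/acetone emulsifier (basic formulation 320 ppm, diluted serially) were mixed 2:8 into molten nutrient-tryptic soy agar, then organisms streaked on the set plates. After 48 hr at 28°C, growth was scored visually against untreated agar as 0%, 50% (sparse, separated colonies) or 100% control (no visible colonies).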

[2] = tested on: Bordetella bronchiseptica; test: Bactericide test, Bordetella bronchiseptica (agar streak plate)
Method in brief: as §1

Escherichia coli = test: Bactericide test, Escherichia coli (agar streak plate)
Excerpt: (§3) Test formulations were examined for bactericidal and/or bacteriostatic activity against the test organisms shown in Tables A and B. These organisms were chosen as being representative of commercially important pathogens affecting animal agriculture. The antibiotic chlortetracycline was chosen as a positive control, since it has a broad spectrum of activity against a large number of organisms, and its activity can be used for comparative purposes.
(§4) Basic test formulations of the product of Examples I, II, III, and of chlortetracycline were prepared by dissolving 16 mg (0.016 g) in 2.0 ml of stock emulsifier solution (0.25% Triton X-155 in acetone by volume) and making each solution up to 50 ml with deionized water. The concentration of the test compound in the basic formulation was 320 ppm. Lower concentrations of the test compound were obtained by diluting the basic formulation with a 4% solution of the stock emulsifier in deionized water so that each dilution in the series differed only in test compound content.
(§5) Nutrient-tryptic soy agar (NTA) consisting of 2.0% Difco Bactoagar 0.8% nutrient broth (Difco), and 0.5% tryptic soy broth (Difco) was prepared and sterilized by autoclaving. A 2 ml aliquot of each test formulation was added to 8 ml of molten NTA. This mixture was then plated in a sterile polystyrene petri dish (100 × 15 mm). After the agar was set, suspensions of each of the test organisms were simultaneously streaked onto the surface of the agar. The inoculated plates were incubated for 48 hr at 28°C. The inhibition of growth of each organism was rated by visual comparison with the organism developing on non-treated agar. Growth inhibition reported as per cent control was rated in three categories as follows: 0% control, growth equivalent to that on non-treated agar; 50% control, sparse development and separated colonies; 100% control, no visible growth or development of colonies.
(§6) Test formulations of the product of Example IV were examined for bactericidal and/or bacteriostatic activity against the test organisms shown in Table B using the Bactericide Test described in Example V. The inhibition of organism growth with each diluted test formulation was rated visually by comparison with the organism developing on a non-treated control agar plate. Growth inhibition reported as per cent control was rated in three categories as follows: 0% control, growth equivalent to that on non-treated agar; 50% control is sparse development and separated colonies; and 100% control, development of individual colonies was not apparent.

Salmonella typhimurium = test: Bactericide test, Salmonella typhimurium (agar streak plate); details: Salmonella enterica, TYPHIMURIUM
Excerpt: as §3, §4, §5

Streptococcus group E = test: Bactericide test, Streptococcus group E (agar streak plate)
Method in brief: as §1

Streptococcus agalactiae = test: Bactericide test, Streptococcus agalactiae (agar streak plate)
Method in brief: as §1

Salmonella gallinarum = test: Bactericide test, Salmonella gallinarum (agar streak plate); details: Salmonella enterica, GALLINARUM
Method in brief: as §2

Streptococcus faecalis = test: Bactericide test, Streptococcus faecalis (agar streak plate)
Method in brief: as §2

Staphylococcus aureus = test: Bactericide test, Staphylococcus aureus (agar streak plate); details: Staphylococcus aureus
Excerpt: as §3, §4, §5, §6

[3] = 100% inhibition at lower concentrations

SMILES: O=[N+]([O-])c1ccc(C=Cc2nc(Nc3ccc(O)cc3)c3ccccc3n2)o1 [Example I, 2-[2-(5-nitro-2-furyl)vinyl]-4-(p-hydroxyanilino)quinazoline]
- effectiveness compared with chlortetracycline (in words) [1, 3]: considerably more effective
- inhibition at 0.125 ppm ([1]; Erysipelothrix rhusiopathiae, 0.125 ppm): 100%
- inhibition at 0.25 ppm ([1]; Erysipelothrix rhusiopathiae, 0.25 ppm): 100%
- inhibition at 0.5 ppm ([1]; Erysipelothrix rhusiopathiae, 0.5 ppm): 100%
- inhibition at 1 ppm ([1]; Erysipelothrix rhusiopathiae, 1 ppm): 100%
- inhibition at 2 ppm ([1]; Erysipelothrix rhusiopathiae, 2 ppm): 100%
- inhibition at 4 ppm ([1]; Erysipelothrix rhusiopathiae, 4 ppm): 100%
- inhibition at 8 ppm ([1]; Erysipelothrix rhusiopathiae, 8 ppm): 100%
- inhibition at 16 ppm ([1]; Erysipelothrix rhusiopathiae, 16 ppm): 100%
- inhibition at 32 ppm ([1]; Erysipelothrix rhusiopathiae, 32 ppm): 100%
- inhibition at 64 ppm ([1]; Erysipelothrix rhusiopathiae, 64 ppm): 100%
- effectiveness compared with chlortetracycline (in words) (Vibrio coli; [3]): considerably more effective
- inhibition at 0.125 ppm (Vibrio coli; Campylobacter coli, 0.125 ppm): 100%
- inhibition at 0.25 ppm (Vibrio coli; Campylobacter coli, 0.25 ppm): 100%
- inhibition at 0.5 ppm (Vibrio coli; Campylobacter coli, 0.5 ppm): 100%
- inhibition at 1 ppm (Vibrio coli; Campylobacter coli, 1 ppm): 100%
- inhibition at 2 ppm (Vibrio coli; Campylobacter coli, 2 ppm): 100%
- inhibition at 4 ppm (Vibrio coli; Campylobacter coli, 4 ppm): 100%
- inhibition at 8 ppm (Vibrio coli; Campylobacter coli, 8 ppm): 100%
- inhibition at 16 ppm (Vibrio coli; Campylobacter coli, 16 ppm): 100%
- inhibition at 32 ppm (Vibrio coli; Campylobacter coli, 32 ppm): 100%
- inhibition at 64 ppm (Vibrio coli; Campylobacter coli, 64 ppm): 100%
- inhibition at 0.125 ppm (Salmonella cholerasuis; 0.125 ppm): 0%
- inhibition at 0.25 ppm (Salmonella cholerasuis; 0.25 ppm): 0%
- inhibition at 0.5 ppm (Salmonella cholerasuis; 0.5 ppm): 0%
- inhibition at 1 ppm (Salmonella cholerasuis; 1 ppm, read-out: % Inhibition): 0%
- inhibition at 2 ppm (Salmonella cholerasuis; 2 ppm): 0%
- inhibition at 4 ppm (Salmonella cholerasuis; 4 ppm, read-out: % Inhibition): 0%
- inhibition at 8 ppm (Salmonella cholerasuis; 8 ppm): 0%
- inhibition at 16 ppm (Salmonella cholerasuis; 16 ppm, read-out: % Inhibition): 0%
- inhibition at 32 ppm (Salmonella cholerasuis; 32 ppm): 0%
- inhibition at 64 ppm (Salmonella cholerasuis; 64 ppm, read-out: % Inhibition): 0%
- effectiveness compared with chlortetracycline (in words) [2, 3]: considerably more effective
- inhibition at 0.125 ppm ([2]; Bordetella bronchiseptica, 0.125 ppm): 100%
- inhibition at 0.25 ppm ([2]; Bordetella bronchiseptica, 0.25 ppm): 100%
- inhibition at 0.5 ppm ([2]; Bordetella bronchiseptica, 0.5 ppm): 100%
- inhibition at 1 ppm ([2]; Bordetella bronchiseptica, 1 ppm, read-out: % Inhibition): 100%
- inhibition at 2 ppm ([2]; Bordetella bronchiseptica, 2 ppm): 100%
- inhibition at 4 ppm ([2]; Bordetella bronchiseptica, 4 ppm, read-out: % Inhibition): 100%
- inhibition at 8 ppm ([2]; Bordetella bronchiseptica, 8 ppm): 100%
- inhibition at 16 ppm ([2]; Bordetella bronchiseptica, 16 ppm, read-out: % Inhibition): 100%
- inhibition at 32 ppm ([2]; Bordetella bronchiseptica, 32 ppm): 100%
- inhibition at 64 ppm ([2]; Bordetella bronchiseptica, 64 ppm, read-out: % Inhibition): 100%
- inhibition at 0.125 ppm (Escherichia coli; 0.125 ppm): 0%
- inhibition at 0.25 ppm (Escherichia coli; 0.25 ppm): 0%
- inhibition at 0.5 ppm (Escherichia coli; 0.5 ppm): 0%
- inhibition at 1 ppm (Escherichia coli; 1 ppm, read-out: % Inhibition): 0%
- inhibition at 2 ppm (Escherichia coli; 2 ppm): 0%
- inhibition at 4 ppm (Escherichia coli; 4 ppm, read-out: % Inhibition): 0%
- inhibition at 8 ppm (Escherichia coli; 8 ppm): 0%
- inhibition at 16 ppm (Escherichia coli; 16 ppm, read-out: % Inhibition): 0%
- inhibition at 32 ppm (Escherichia coli; 32 ppm): 0%
- inhibition at 64 ppm (Escherichia coli; 64 ppm, read-out: % Inhibition): 0%
- inhibition at 0.125 ppm (Salmonella typhimurium; 0.125 ppm): 0%
- inhibition at 0.25 ppm (Salmonella typhimurium; 0.25 ppm): 0%
- inhibition at 0.5 ppm (Salmonella typhimurium; 0.5 ppm): 0%
- inhibition at 1 ppm (Salmonella typhimurium; 1 ppm, read-out: % Inhibition): 0%
- inhibition at 2 ppm (Salmonella typhimurium; 2 ppm): 0%
- inhibition at 4 ppm (Salmonella typhimurium; 4 ppm, read-out: % Inhibition): 0%
- inhibition at 8 ppm (Salmonella typhimurium; 8 ppm): 0%
- inhibition at 16 ppm (Salmonella typhimurium; 16 ppm, read-out: % Inhibition): 0%
- inhibition at 32 ppm (Salmonella typhimurium; 32 ppm): 0%
- inhibition at 64 ppm (Salmonella typhimurium; 64 ppm, read-out: % Inhibition): 0%
- inhibition at 0.125 ppm (Streptococcus group E; 0.125 ppm): 100%
- inhibition at 0.25 ppm (Streptococcus group E; 0.25 ppm): 100%
- inhibition at 0.5 ppm (Streptococcus group E; 0.5 ppm): 100%
- inhibition at 1 ppm (Streptococcus group E; 1 ppm, read-out: % Inhibition): 100%
- inhibition at 2 ppm (Streptococcus group E; 2 ppm): 100%
- inhibition at 4 ppm (Streptococcus group E; 4 ppm, read-out: % Inhibition): 100%
- inhibition at 8 ppm (Streptococcus group E; 8 ppm): 100%
- inhibition at 16 ppm (Streptococcus group E; 16 ppm, read-out: % Inhibition): 100%
- inhibition at 32 ppm (Streptococcus group E; 32 ppm): 100%
- inhibition at 64 ppm (Streptococcus group E; 64 ppm, read-out: % Inhibition): 100%
- effectiveness compared with chlortetracycline (in words) (Streptococcus group E; [3]): considerably more effective
- effectiveness compared with chlortetracycline (in words) (Streptococcus agalactiae; [3]): considerably more effective
- inhibition at 0.125 ppm (Streptococcus agalactiae; Streptococcus agalactiae, 0.125 ppm): 100%
- inhibition at 0.25 ppm (Streptococcus agalactiae; Streptococcus agalactiae, 0.25 ppm): 100%
- inhibition at 0.5 ppm (Streptococcus agalactiae; Streptococcus agalactiae, 0.5 ppm): 100%
- inhibition at 1 ppm (Streptococcus agalactiae; Streptococcus agalactiae, 1 ppm, read-out: % Inhibition): 100%
- inhibition at 2 ppm (Streptococcus agalactiae; Streptococcus agalactiae, 2 ppm): 100%
- inhibition at 4 ppm (Streptococcus agalactiae; Streptococcus agalactiae, 4 ppm, read-out: % Inhibition): 100%
- inhibition at 8 ppm (Streptococcus agalactiae; Streptococcus agalactiae, 8 ppm): 100%
- inhibition at 16 ppm (Streptococcus agalactiae; Streptococcus agalactiae, 16 ppm, read-out: % Inhibition): 100%
- inhibition at 32 ppm (Streptococcus agalactiae; Streptococcus agalactiae, 32 ppm): 100%
- inhibition at 64 ppm (Streptococcus agalactiae; Streptococcus agalactiae, 64 ppm, read-out: % Inhibition): 100%
- inhibition at 0.125 ppm (Salmonella gallinarum; 0.125 ppm): 0%
- inhibition at 0.25 ppm (Salmonella gallinarum; 0.25 ppm): 0%
- inhibition at 0.5 ppm (Salmonella gallinarum; 0.5 ppm): 0%
- inhibition at 1 ppm (Salmonella gallinarum; 1 ppm): 0%
- inhibition at 2 ppm (Salmonella gallinarum; 2 ppm): 0%
- inhibition at 4 ppm (Salmonella gallinarum; 4 ppm): 0%
- inhibition at 8 ppm (Salmonella gallinarum; 8 ppm): 0%
- inhibition at 16 ppm (Salmonella gallinarum; 16 ppm): 0%
- inhibition at 32 ppm (Salmonella gallinarum; 32 ppm): 0%
- inhibition at 64 ppm (Salmonella gallinarum; 64 ppm): 0%
- effectiveness compared with chlortetracycline (in words) (Streptococcus faecalis; [3]): considerably more effective
- inhibition at 0.125 ppm (Streptococcus faecalis; Enterococcus faecalis, 0.125 ppm): 100%
- inhibition at 0.25 ppm (Streptococcus faecalis; Enterococcus faecalis, 0.25 ppm): 100%
- inhibition at 0.5 ppm (Streptococcus faecalis; Enterococcus faecalis, 0.5 ppm): 100%
- inhibition at 1 ppm (Streptococcus faecalis; Enterococcus faecalis, 1 ppm, read-out: % Inhibition): 100%
- inhibition at 2 ppm (Streptococcus faecalis; Enterococcus faecalis, 2 ppm): 100%
- inhibition at 4 ppm (Streptococcus faecalis; Enterococcus faecalis, 4 ppm, read-out: % Inhibition): 100%
- inhibition at 8 ppm (Streptococcus faecalis; Enterococcus faecalis, 8 ppm): 100%
- inhibition at 16 ppm (Streptococcus faecalis; Enterococcus faecalis, 16 ppm, read-out: % Inhibition): 100%
- inhibition at 32 ppm (Streptococcus faecalis; Enterococcus faecalis, 32 ppm): 100%
- inhibition at 64 ppm (Streptococcus faecalis; Enterococcus faecalis, 64 ppm, read-out: % Inhibition): 100%
- inhibition at 0.125 ppm (Staphylococcus aureus; 0.125 ppm): 0%
- inhibition at 0.25 ppm (Staphylococcus aureus; 0.25 ppm): 0%
- inhibition at 0.5 ppm (Staphylococcus aureus; 0.5 ppm): 0%
- inhibition at 1 ppm (Staphylococcus aureus; 1 ppm, read-out: % Inhibition): 0%
- inhibition at 2 ppm (Staphylococcus aureus; 2 ppm): 0%
- inhibition at 4 ppm (Staphylococcus aureus; 4 ppm, read-out: % Inhibition): 0%
- inhibition at 8 ppm (Staphylococcus aureus; 8 ppm): 0%
- inhibition at 16 ppm (Staphylococcus aureus; 16 ppm, read-out: % Inhibition): 0%
- inhibition at 32 ppm (Staphylococcus aureus; 32 ppm): 0%
- inhibition at 64 ppm (Staphylococcus aureus; 64 ppm, read-out: % Inhibition): 0%
